In US20120041305A1, “LIGHT-EMITTING DYE FOR INTRAOPERATIVE IMAGING OR SENTINEL LYMPH NODE BIOPSY” (THE UNIVERSITY OF UTAH RESEARCH FOUNDATION, priority 2009, published 2012):
Read-outs that look alike come from different tables or passages of the source.

Assays:
[1] = cited from earlier work
[2] = vital blue dye alone, intradermal; cited from earlier work
[3] = Porcine model of lymphatic mapping (intradermal limb injection); type: in vivo, swine
[4] = 120 colon cancer patients, intramural bowel injection; cited from earlier work
[5] = Human melanoma clinical trial, intraoperative sentinel lymph node fluorescence; type: in vivo; settings: 0.001%, 1 ml intradermally in 4 locations, 3 out of 5 patients
Procedure: Patients with cutaneous malignant melanoma with a Breslow thickness of 0.75 mm or greater, or Clark level IV/V involvement, or ulceration were enrolled in the trial. All patients underwent preoperative lymphoscintigraphy with 99m-Technetium labeled sulfur colloid up to 24 hours before the operation. The normally used intraoperative vital blue dye was replaced by fluorescein. The initial starting dose of fluorescein was 0.001% and 1 ml was injected intradermally intraoperatively in 4 locations around the melanoma biopsy site. At this does, sentinel lymph node fluorescence was identified in 3 out of 5 patients (60%). […] The 0.01% dose was used in the subsequent phase II study.

[6] = 1,047 patients, intradermal, 10% fluorescein mixed 1:1 with 1% lidocaine hydrochloride; cited from earlier work

CCN(CC)c1ccc(C(=C2C=CC(=[N+](CC)CC)C=C2)c2cc(S(=O)(=O)[O-])ccc2S(=O)(=O)[O-])cc1.[Na+] [Lymphazurin, isosulfan blue]
patients with anaphylactoid reaction or life threatening anaphylactic shock ([1]; 1% dye, lymphatic mapping and SLNB): 0.1-2% | chance of a life-threatening anaphylactic event caused by injection ([1]; human, in vivo): 1% | cases in which the SLN can be identified [2]: approximately 87% | forelimb injections leading to a SLN ([3]; swine forelimb, injected four times): failed to lead to a SLN

O=C1OC2(c3ccc(O)cc3Oc3cc(O)ccc32)c2ccccc21 [fluorescein, Fluorescein]
adverse reactions [4]: none of the 120 patients suffered any adverse reactions | forelimb injections developing visible fluorescence leading to a SLN ([3]; swine forelimb, one of seven injections): 14% | hindlimb injections showing lymphatic trunks under the skin leading to the SLN ([3]; swine hindlimb, nine of ten injections): 90% | patients with sentinel lymph node fluorescence identified [5]: 60% | adverse reactions [6]: without adverse reactions
